Measured values from patent US10806694B2, “Nanoparticles for photodynamic therapy, X-ray induced photodynamic therapy, radiotherapy, radiodynamic therapy, chemotherapy, immunotherapy, and any combination thereof” (The University of Chicago, priority 2014, dated 2020).

Columns and labels:
[1] = system: HT29 cells; conditions: 8.5 μM dose, 100 J/cm^2 light dose; cited from earlier work
[2] = Fluorescence lifetime by Time-Correlated Single Photon Counting; fluorescence intensity; type: physicochemical
Description: The fluorescence spectra of H2DBP ligand and DBP-UiO NMOF were taken on a spectrofluorophotometer (RF-5301PC, Shimadzu Corporation, Kyoto, Japan).
Time-domain lifetimes were measured on a ChronosBH lifetime fluorimeter (ISS, Inc., Champaign, Ill., United States of America) using Time-Correlated Single Photon Counting (TCSPC) methods. The fluorimeter contained Becker-Hickl SPC-130 detection electronics and an HPM-100-40 Hybrid PMT detector. Tunable picosecond pulsed excitation was provided by a Fianium SC400-2 supercontiuum laser source with integrated pulse picker and AOTF. Emission wavelengths were selected with bandpass filters (Semrock and Chroma). The Instrument Response Function (IRF) was measured to be approximately 120 ps FWHM in a 1% scattering solution of Ludox LS colloidal silica. Lifetimes were fit via a forward convolution method in the Vinci control and analysis software.
Fluorescence spectra of suspensions of Hf-MOF (0.04 mM of L ligand) in water, DMF, and THF were taken with an excitation wavelength of 368.8 nm. […] Fluorescence lifetimes of Hf-MOF, Zr-MOF, and H2L suspensions in water were also examined.

In the case of PHOTOFRIN®, the PDT efficacy [1] is listed as “modest PDT efficacy”.
`O=C(O)c1ccc(-c2c3ccccc3c(-c3ccc(C(=O)O)cc3)c3ccccc23)cc1` [H2L, 9,10-anthacenyl bis(benzoic acid)] showed an excited state lifetime ([2]; DMF solution or suspension) of 5.34 ns and a weighted fluorescence lifetime ([2]; suspensions in water) of 2.0 ns.
